Reference: paper PMC4275256 (PLoS ONE, 2014)

Columns and labels:
Conditions in all cases: read-out: Km[HCO3 ^-]; pH 8, 50 mM NaCl, 24 °C; labelled compound; corrected for respiratory Ci
[1] = molecular target: T1, SbtA7942 (Synechococcus elongatus, UniProt Q31N64)
T1 construct: gene Synpcc7942_1475

[2] = tested on: T2, SbtA5701 (SbtA1)
T2 construct: gene sbtA

[3] = molecular target: T3, SbtA6803 (Synechocystis sp. PCC 6803, UniProt P73953)
T3 construct: gene slr1512

[4] = tested on: T4, SbtA6307 (SbtA1)
T4 construct: gene sbtA

Measured: Km

T3 sequence (P73953 1-374): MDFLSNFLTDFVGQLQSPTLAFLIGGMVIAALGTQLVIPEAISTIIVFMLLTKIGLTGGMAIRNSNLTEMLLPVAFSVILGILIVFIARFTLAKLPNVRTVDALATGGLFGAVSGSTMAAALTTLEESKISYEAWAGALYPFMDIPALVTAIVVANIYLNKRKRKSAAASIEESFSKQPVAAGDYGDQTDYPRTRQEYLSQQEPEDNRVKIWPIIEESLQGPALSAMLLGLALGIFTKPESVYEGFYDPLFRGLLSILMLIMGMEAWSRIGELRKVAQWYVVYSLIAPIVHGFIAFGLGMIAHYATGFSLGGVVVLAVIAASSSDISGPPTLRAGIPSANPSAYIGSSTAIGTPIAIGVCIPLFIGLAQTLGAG
T1 sequence (Q31N64 1-373): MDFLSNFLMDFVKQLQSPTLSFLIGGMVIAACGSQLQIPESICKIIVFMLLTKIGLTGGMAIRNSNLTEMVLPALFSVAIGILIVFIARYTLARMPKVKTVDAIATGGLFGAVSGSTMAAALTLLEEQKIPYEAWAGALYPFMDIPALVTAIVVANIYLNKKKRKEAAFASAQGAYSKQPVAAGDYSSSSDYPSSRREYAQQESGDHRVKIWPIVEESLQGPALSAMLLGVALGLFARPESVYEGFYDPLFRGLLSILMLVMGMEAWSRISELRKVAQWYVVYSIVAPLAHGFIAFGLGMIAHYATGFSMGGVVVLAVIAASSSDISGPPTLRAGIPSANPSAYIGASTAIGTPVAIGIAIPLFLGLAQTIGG

O=C(O)O [HCO3 ^-]
< 100 µM: all assays above
